Data from article PMC12662848 (Cancer Chemotherapy and Pharmacology, 2025).

Assays:
CLL = settings: cited from earlier work
BCL-2β mRNA = experiment: qPCR analysis of BCL-2β mRNA in healthy donor PBMCs treated ex vivo with ABT-199; format: cell-based, human; settings: 1 µM; for BCL-2β mRNA levels: 2–4 h post-treatment
Experimental: (§1) PBMCs from the trial patients or healthy donors were isolated from whole blood using Lymphoprep™ ([…] Technologies, Cat. #07801) following the manufacturer’s protocol. Whole blood was diluted 1:1 with room temperature phosphate-buffered saline (PBS) containing 2% fetal bovine serum (FBS) and carefully layered over an equal volume of Lymphoprep™ in a 50 mL conical tube. Samples were centrifuged at 800 × g for 20–30 min at room temperature with the brake off. The PBMC layer formed at the interface between the plasma and Lymphoprep™ was gently collected and transferred to a new tube. Cells were washed once with PBS containing 2% FBS by centrifugation at 300 × g for 10 min, and the final pellet was resuspended in DMEM media for downstream culture.
(§2) ABT-199 (S8048, Selleck Chemicals) was dissolved in DMSO. Healthy donor PBMCs were seeded at a density of 2 × 10⁶ cells per 60 mm dish and treated with 1 μM of ABT-199 for various time intervals (i.e., 2, 4, 8, and 24 h). At the end of each time point, PBMCs were harvested for protein and RNA extraction (below). All treatments were performed in 3–6 biological replicates and control samples were treated with vehicle (DMSO) only.
We developed a qPCR-based strategy to quantitatively analyze the BCL-2α/β mRNA levels in control and ABT-199 treated PBMCs (above). Briefly, total RNA was extracted using the PicoPure™ RNA Isolation Kit (Thermo Fisher Scientific, cat# KIT0204) with on-column DNase treatment. cDNA was synthesized from 750 ng RNA using SuperScript™ IV VILO™ Master Mix (Thermo Fisher Scientific, cat# 11,756,050). Quantitative PCR was performed using TaqMan Gene Expression Assays (Bio-Rad) with a FAM-conjugated custom probe specific for the BCL-2β isoform (5’-[…]-3’; Bio-Rad, part# 10,031,261). […] Reactions were run on the QuantStudio™ 6 Flex Real-Time PCR System (Applied Biosystems) under standard cycling conditions. Relative expression was calculated using the 2^–ΔΔCt method normalized to the 0-h (untreated) control. All conditions were tested in technical triplicates from 3–6 independent experiments.

[1] = cited from earlier work
BCL-2 [2] = experiment: Automated Western blot (WES) analysis of BCL-2 protein in patient PBMCs; format: in vivo, human
Experimental: as §1
The BCL-2 protein levels in patient PBMCs were analyzed using PBMC lysate in the automated quantitative WES™ system (https://www.bio-techne.com/brands/proteinsimple), as we previously described. Briefly, the Simple Western WES™ immunoassays take place in capillaries and separate proteins by size as they migrate through stacking and separation matrix. The separated proteins are immobilized to the capillary wall via a proprietary, photoactivated capture chemistry. […] Quantitative results such as M.W, signal intensity (area), % area, and signal-to-noise for each immunodetected protein are presented in the results table automatically. […]

BCL-2 [3] = experiment: Western blotting of BCL-2α/β proteins and cleaved caspase-3 in healthy donor PBMCs treated ex vivo with ABT-199; format: cell-based, human; settings: 1 µM
Experimental: as §1, §2
PBMC samples from above were harvested using 0.1% trypsin–EDTA solution (Gibco) and centrifuged (1,000 rcf, 4 min, 4 °C), washed with DPBS (Gibco), centrifuged again (1,000 rcf, 4 min, 4 °C), and the pellet was lysed in denaturing buffer containing Halt protease inhibitor cocktail (Thermo Fisher Scientific; Cat# SD-001/SN-002) for 15 min on ice. After centrifugation (15,000 rcf, 15 min, 4 °C), an aliquot of the supernatant was taken to determine the protein concentration using a BCA Protein Assay Kit (Thermo Fisher Scientific). Protein samples were mixed in NuPAGE LDS buffer and 1 × reducing agent (Invitrogen) and denatured at 95 °C for 5 min. Proteins separated by sodium dodecyl sulfate–polyacrylamide gel electrophoresis (SDS-PAGE) were transferred to a nitrocellulose membrane at 110 V for 110 min in a wet tank transfer system (Surelock system, Invitrogen). […]

**Q.** Which Average steady-state venetoclax concentration required for a 50% tumor shrinkage (CLL) does the source give for `CC1(C)CCC(CN2CCN(c3ccc(C(=O)NS(=O)(=O)c4ccc(NCC5CCOCC5)c([N+](=O)[O-])c4)c(Oc4cnc5[nH]ccc5c4)c3)CC2)=C(c2ccc(Cl)cc2)C1` [venetoclax] here?
**A.** 146 µg/L

**Q.** And the “Average steady-state venetoclax concentration that decreases lymphocyte counts by 50% from baseline” value (CLL)?
**A.** 8.63 µg/L

**Q.** What about the “Extension of PFS with a doubling of dose” value (CLL) of the same compound?
**A.** 6 months

**Q.** What about the “BCL-2β mRNA levels” value (BCL-2β mRNA) of the same compound?
**A.** induced

**Q.** And the “BCL-2β mRNA levels” value (BCL-2β mRNA; listed as Venetoclax)?
**A.** increased significantly

**Q.** What about the “BCL-2β mRNA” value (BCL-2β mRNA; ≥ 24 h post treatment) of the same compound?
**A.** undetectable

**Q.** And the Absolute bioavailability [1]?
**A.** ~ 5%

**Q.** What about the “Less than expected exposure when doubling dose” value ([1]; from 400 to 800 mg, population PK report) of the same compound?
**A.** 12%

**Q.** And the Cmax ([1]; previous values, 800 mg dose)?
**A.** 3740 ng/mL

**Q.** What about the Cmin ([1]; previous values, 800 mg dose) of the same compound?
**A.** 1430 ng/mL

**Q.** What about the Venetoclax half-life ([1]; previously reported in AML patients) of the same compound?
**A.** 14 to 26 h

**Q.** And the Venetoclax clearance ([1]; previously reported)?
**A.** 413 L/day

**Q.** And the “BCL-2β and BCL-2α protein in patients' PBMCs” value (BCL-2 [2]; three 'responsive' patients (02–01, 02–07, 01–03), early cycles of treatment)?
**A.** promoted the generation of BCL-2β with concordant reduction in BCL-2α protein

**Q.** What about the “BCL-2α and BCL-2β protein in patients' PBMCs” value (BCL-2 [2]; three 'responsive' patients, late cycles and towards the end of treatment (EoT)) of the same compound?
**A.** markedly reduced

**Q.** And the “Apoptosis: active (cleaved) caspase-3” value (BCL-2 [3]; PBMCs from all 3 healthy donors)?
**A.** increased active (cleaved) caspase-3

**Q.** And the “BCL-2β protein levels and BCL-2β/BCL-2α ratios” value (BCL-2 [3]; all 3 healthy donor PBMCs, from 2 h up to 8 h)?
**A.** upregulated BCL-2β protein levels and increased the BCL-2β/BCL-2α ratios

**Q.** What about the BCL-2α/BCL-2β proteins (BCL-2 [3]; healthy donor PBMCs, ≥ 24 h post treatment) of the same compound?
**A.** lost and undetectable
